Measured values as given in patent US20160038526A1, “TREATMENT OF PROSTATE CANCER” (THOMAS JEFFERSON UNIVERSITY, priority 2012, published 2016).

What was measured:
Jak2 = biological target: T1, Jak2 (Homo sapiens, UniProt O60674); assay: Jak2 phosphorylation in CWR22Rv1 cells (immunoprecipitation/Western blot); format: cell-based; details: CWR22Rv1 cells, 25, 50 and 100 μM for 2 h, 10 nM Prl 30 minutes
T1 construct: endogenous in cells; host or cells: CWR22Rv1
Description: CWR22Rv1 cells were starved for 24 h in serum-free medium, treated N6BAP at 25, 50 and 100 μM concentrations for 2 h, followed by stimulation with 10 nM Prl for 30 minutes. Stat5a and Jak2 were immunoprecipitated with anti-Stat5a or anti-Jak2 pAbs. Immunoprecipitates of CWR22Rv1 cells were blotted with anti-PYStat5, anti-Stat5a/b mAb or anti-PY mAb (for Jak2). Whole cell lysates were immunoblotted with anti-actin pAb for loading control. Because SH2-domain of Stat5 mediates the recruitment of Stat5 to the Prl-receptor-Jak2-complex and Stat5 phosphorylation, N6BAP inhibits Prl-induced phosphorylation of Stat5.
The protocol in more detail comprised the following. Cell pellets were solubilized in lysis buffer [10 mM Tris-HCl (pH 7.6), 5 mM EDTA, 50 mM sodium chloride, 30 mM sodium pyrophosphate, 50 mM sodium fluoride, 1 mM sodium orthovanadate, 1% Triton X-100, 1 mM phenylmethylsulfonyl fluoride, 5 μg/mlaprotinin, 1 μg/ml pepstatin A, and 2 μg/ml leupeptin], rotated end-over-end at 4° C. for 60 min, and insoluble material was pelleted at 12,000×g for 30 min at 4° C. The protein concentrations of clarified cell lysates were determined by simplified Bradford method (Bio-Rad Laboratories, Hercules, Calif.). Stat5a, Stat5b and Jak2 were immunoprecipitated from whole cell lysates with anti-Stat5a, anti-Stat5b (4 μl/ml; Millipore, Billerica, Mass.) or anti-Jak2 (Millipore) pAbs. […]

CWR22Rv1 xenograft tumor = assay: CWR22Rv1 human prostate tumor xenograft in nude mice: tumor growth, viable cells, TUNEL; format: in vivo; details: nude mice, 25, 50 or 100 mg/kg intraperitoneal daily for 10 days
Description: 1.5×10^7 CWR22Rv1 cells in 0.1 ml RPMI 1640 medium were mixed with 0.1 ml of Matrigel (BD Bioscience, Palo Alto, Calif.), and were inoculated subcutaneously (s.c.) into one flank per mouse. Established tumors were randomly distributed into five groups (ten mice for each group) with similar average size. N6BAP was dissolved in 0.3% hydroxycellulose (HPC). Mice were treated daily for 10 days by intraperitoneal injection with 0.2 ml of N6BAP at 25 mg/kg, 50 mg/kg or 100 mg/kg body weight, or with 0.2 ml 0.3% HPC solution, or no treatment for control. Tumor sizes were measured three times per week. Tumor volumes were calculated using the following formula: 3.14×length×width×depth/6. Tumor growth rates were calculated, and percent changes in tumor volume of each group were presented. […] Individual tumors are represented as columns.
Tumor sections were hematoxylin-eosin stained to assess the loss of viable tumor cells. The results are shown in FIG. 12A, showing the loss of live epithelial cells with the […] N6BAP-treated CWR22Rv1 xenograft tumors vs. controls.
In situ end labeling of fragmented DNA was carried out according to the terminal deoxyribonucleotidyl transferse (TdT)-mediated biotin-16-dUTP nick-end labeling (TUNEL) assay to determine that cells within the CWR22Rv1 tumors were undergoing apoptosis. The assay was performed according to the In situ Cell Death Detection Kit from Roche Applied Science. Briefly, rehydrated deparaffinated tissue sections from the xenograft tumors were treated by Proteinase K followed by 3% H2O2 at room temperature. […] Nucleotides incorporated into fragmented DNA were detected after incubation with anti-fluorescein antibody conjugated with peroxidase followed by visualization with 3,3-diaminobenzidine as a chromogen and methyl green as a counterstain. […] Cell viability indexes were determined by counting alive cells per total number of cells per view established in the no treatment group. TUNEL indexes were determined by counting epithelial cells with TUNEL-positive cells per total number of epithelial cells per view. […]

T1 sequence (O60674 whole entry): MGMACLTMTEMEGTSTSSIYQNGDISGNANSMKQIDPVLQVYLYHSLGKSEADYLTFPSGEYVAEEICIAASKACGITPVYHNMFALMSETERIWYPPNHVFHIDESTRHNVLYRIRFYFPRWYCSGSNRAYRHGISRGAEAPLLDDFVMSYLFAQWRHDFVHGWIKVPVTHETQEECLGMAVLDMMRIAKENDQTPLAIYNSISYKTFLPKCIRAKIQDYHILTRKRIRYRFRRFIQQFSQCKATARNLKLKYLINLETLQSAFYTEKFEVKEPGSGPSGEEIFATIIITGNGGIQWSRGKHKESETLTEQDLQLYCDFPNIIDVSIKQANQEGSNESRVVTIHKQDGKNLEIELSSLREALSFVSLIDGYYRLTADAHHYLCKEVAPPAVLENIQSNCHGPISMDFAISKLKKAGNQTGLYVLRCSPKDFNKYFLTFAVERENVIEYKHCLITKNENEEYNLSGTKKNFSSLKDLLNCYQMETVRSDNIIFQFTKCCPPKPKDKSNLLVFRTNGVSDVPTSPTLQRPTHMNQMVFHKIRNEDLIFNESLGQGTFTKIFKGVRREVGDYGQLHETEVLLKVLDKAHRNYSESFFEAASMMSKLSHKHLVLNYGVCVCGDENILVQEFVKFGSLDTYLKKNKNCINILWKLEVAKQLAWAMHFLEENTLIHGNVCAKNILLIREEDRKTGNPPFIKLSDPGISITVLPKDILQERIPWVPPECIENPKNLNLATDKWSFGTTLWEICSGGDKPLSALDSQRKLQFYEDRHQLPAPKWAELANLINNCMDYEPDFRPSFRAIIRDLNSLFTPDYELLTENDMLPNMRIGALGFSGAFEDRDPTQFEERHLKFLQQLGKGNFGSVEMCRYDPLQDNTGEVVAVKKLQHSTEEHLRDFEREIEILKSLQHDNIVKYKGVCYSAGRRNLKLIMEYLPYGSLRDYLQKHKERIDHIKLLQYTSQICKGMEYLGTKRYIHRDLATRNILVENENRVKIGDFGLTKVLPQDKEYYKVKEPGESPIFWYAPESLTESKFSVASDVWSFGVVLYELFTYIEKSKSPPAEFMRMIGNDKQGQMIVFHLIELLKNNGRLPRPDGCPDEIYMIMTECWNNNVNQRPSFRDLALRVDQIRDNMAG

## O=P(O)(O)OC[C@H]1O[C@@H](n2cnc3c(NCc4ccccc4)ncnc32)[C@H](O)[C@@H]1O [N6BAP, N^6-benzyladenosine-5′-monophosphate]
Jak2
  phosphorylation of Jak2: does not affect phosphorylation of Jak2
CWR22Rv1 xenograft tumor
  apoptotic epithelial cells in tumor xenografts (TUNEL): increased apoptotic epithelial cells
  live epithelial cells in tumor xenografts (hematoxylin-eosin staining): decreased the number of live epithelial cells
  xenograft tumor growth (tumor volume): inhibited the growth of the xenograft tumor in a dose-dependent manner
